Source: patent US8921385B2, “5-substituted quinazolinone derivatives and compositions comprising and methods of using the same” (Celgene Corporation, priority 2006, dated 2014)

Compared with `Cc1cccc2nc(C(F)(F)F)n(C3CCC(=O)NC3=O)c(=O)c12` (centres unmarked) [Example 6.15, 3-(5-Methyl-4-Oxo-2-Trifluoromethyl-4H-Quinazolin-3-yl)-Piperidine-2,6-Dione], `Cc1nc2cccc(C(F)(F)F)c2c(=O)n1C1CCC(=O)NC1=O` (centres unmarked) [Example 6.11, 3-(2-Methyl-4-Oxo-5-Trifluoromethyl-4H-Quinazolin-3-yl)-Piperidine-2,6-Dione] is lower in melting point: 308 to 310 °C for the first, 268 to 270 °C for the second.

First: Cc1nc2cccc(CNC(=O)c3cccc(F)c3)c2c(=O)n1C1CCC(=O)NC1=O (centres unmarked) [Example 6.52, N-[3-(2,6-Dioxo-Piperidin-3-yl)-2-Methyl-4-Oxo-3,4-Dihydro-Quinazolin-5-ylmethyl]-3-Fluoro-Benzamide]
Second: Cc1cccc(C(=O)NCc2cccc3nc(C)n(C4CCC(=O)NC4=O)c(=O)c23)c1 (centres unmarked) [Example 6.50, N-[3-(2,6-Dioxo-Piperidin-3-yl)-2-Methyl-4-Oxo-3,4-Dihydro-Quinazolin-5-ylmethyl]-3-Methyl-Benzamide]
The melting point of the first is lower: 240 to 242 °C for the first, 263 to 265 °C for the second.

Compared with `Cc1nc2cccc(CNC(=O)Cc3ccc(C(F)(F)F)cc3)c2c(=O)n1C1CCC(=O)NC1=O` (centres unmarked) [Example 6.45, N-[3-(2,6-Dioxo-Piperidin-3-yl)-2-Methyl-4-Oxo-3,4-Dihydro-Quinazolin-5-ylmethyl]-2-(4-Trifluoromethyl-Phenyl)-Acetamide], `Cc1nc2cccc(CNC(=O)c3ccc(OC(F)(F)F)cc3)c2c(=O)n1C1CCC(=O)NC1=O` (centres unmarked) [Example 6.54, N-[3-(2,6-Dioxo-Piperidin-3-yl)-2-Methyl-4-Oxo-3,4-Dihydro-Quinazolin-5-ylmethyl]-4-Trifluoromethoxy-Benzamide] is higher in melting point: 199 to 201 °C for the first, 258 to 260 °C for the second.

First: Cc1nc2cccc(CNC(=O)Cc3ccc(Cl)c(Cl)c3)c2c(=O)n1C1CCC(=O)NC1=O (centres unmarked) [Example 6.42, 2-(3,4-Dichloro-Phenyl)-N-[3-(2,6-Dioxo-Piperidin-3-yl)-2-Methyl-4-Oxo-3,4-Dihydro-Quinazolin-5-ylmethyl]-Acetamide]
Second: Cc1nc2cccc(CNC(=O)c3ccc(Cl)c(Cl)c3)c2c(=O)n1C1CCC(=O)NC1=O (centres unmarked) [Example 6.56, 3,4-Dichloro-N-[3-(2,6-Dioxo-Piperidin-3-yl)-2-Methyl-4-Oxo-3,4-Dihydro-Quinazolin-5-ylmethyl]-Benzamide]
The melting point of the first is lower: 262 to 264 °C for the first, 271 to 273 °C for the second.

First: Cc1nc2cccc(CNC(=O)Cc3ccccc3)c2c(=O)n1C1CCC(=O)NC1=O (centres unmarked) [Example 6.38, N-[3-(2,6-Dioxo-Piperidin-3-yl)-2-Methyl-4-Oxo-3,4-Dihydro-Quinazolin-5-ylmethyl]-2-Phenyl-Acetamide]
Second: Cc1nc2cccc(CNC(=O)c3ccccc3)c2c(=O)n1C1CCC(=O)NC1=O (centres unmarked) [Example 6.55, N-[3-(2,6-Dioxo-Piperidin-3-yl)-2-Methyl-4-Oxo-3,4-Dihydro-Quinazolin-5-ylmethyl]-Benzamide]
The melting point of the first is higher: 275 to 277 °C for the first, 247 to 249 °C for the second.

First: CCCCCCC(=O)Nc1cccc2nc(C)n(C3CCC(=O)NC3=O)c(=O)c12 (centres unmarked) [Example 6.23, Heptanoic Acid [3-(2,6-Dioxo-Piperidin-3-yl)-2-Methyl-4-Oxo-3,4-Dihydro-Quinazolin-5-yl]-Amide]
Second: CCCCCCC(=O)NCc1cccc2nc(C)n(C3CCC(=O)NC3=O)c(=O)c12 (centres unmarked) [Example 6.32, Heptanoic Acid [3-(2,6-Dioxo-Piperidin-3-yl)-2-Methyl-4-Oxo-3,4-Dihydro-Quinazolin-5-ylmethyl]-Amide]
The melting point of the first is higher: 230 to 232 °C for the first, 208 to 210 °C for the second.

First: Cc1cccc2nc(C)n([C@@]3(C)CCC(=O)NC3=O)c(=O)c12 [Example 6.7, 3R-3-(2,5-Dimethyl-4-Oxo-4H-Quinazolin-3-yl)-3-Methyl-Piperidine-2,6-Dione]
Second: CCCCc1nc2cccc(C)c2c(=O)n1C1CCC(=O)NC1=O (centres unmarked) [Example 6.14, 3-(2-Butyl-5-Methyl-4-Oxo-4H-Quinazolin-3-yl)-Piperidine-2,6-Dione]
The melting point of the first is higher: 298 to 301 °C for the first, 190 to 192 °C for the second.

Compared with `Cc1nc2cccc(NC(=O)c3cccc(Cl)c3)c2c(=O)n1C1CCC(=O)NC1=O` (centres unmarked) [Example 6.36, 3-Chloro-N-[3-(2,6-Dioxo-Piperidin-3-yl)-2-Methyl-4-Oxo-3,4-Dihydro-Quinazolin-5-yl]-Benzamide], `Cc1nc2cccc(CNC(=O)c3ccc(Cl)cc3)c2c(=O)n1C1CCC(=O)NC1=O` (centres unmarked) [Example 6.51, 4-Chloro-N-[3-(2,6-Dioxo-Piperidin-3-yl)-2-Methyl-4-Oxo-3,4-Dihydro-Quinazolin-5-ylmethyl]-Benzamide] is lower in melting point: 326 to 328 °C for the first, 276 to 278 °C for the second.

Compared with `CCCC(=O)NCc1cccc2nc(C)n(C3CCC(=O)NC3=O)c(=O)c12` (centres unmarked) [Example 6.31, N-[3-(2,6-Dioxo-Piperidin-3-yl)-2-Methyl-4-Oxo-3,4-Dihydro-Quinazolin-5-ylmethyl]-Butyramide], `Cc1ccc(CC(=O)NCc2cccc3nc(C)n(C4CCC(=O)NC4=O)c(=O)c23)cc1F` (centres unmarked) [Example 6.44, N-[3-(2,6-Dioxo-Piperidin-3-yl)-2-Methyl-4-Oxo-3,4-Dihydro-Quinazolin-5-ylmethyl]-2-(3-Fluoro-4-Methyl-Phenyl)-Acetamide] is higher in melting point: 250 to 252 °C for the first, 264 to 266 °C for the second.

Compared with `Cc1nc2cccc(CNC(=O)c3ccccn3)c2c(=O)n1C1CCC(=O)NC1=O` (centres unmarked) [Example 6.39, Pyridine-2-Carboxylic Acid [3-(2,6-Dioxo-Piperidin-3-yl)-2-Methyl-4-Oxo-3,4-Dihydro-Quinazolin-5-ylmethyl]-Amide], `Cc1nc2cccc(CNC(=O)Nc3ccc(Cl)cc3)c2c(=O)n1C1CCC(=O)NC1=O` (centres unmarked) [Example 6.46, 1-(4-Chloro-Phenyl)-3-[3-(2,6-Dioxo-Piperidin-3-yl)-2-Methyl-4-Oxo-3,4-Dihydro-Quinazolin-5-ylmethyl]-Urea] is lower in melting point: 261 to 263 °C for the first, 255 to 257 °C for the second.

First: Cc1cccc2nc(-c3ccccc3)n(C3CCC(=O)NC3=O)c(=O)c12 (centres unmarked) [Example 6.16, 3-(5-Methyl-4-Oxo-2-Phenyl-4H-Quinazolin-3-yl)-Piperidine-2,6-Dione]
Second: COc1cccc2nc(C)n(C3CCC(=O)NC3=O)c(=O)c12 (centres unmarked) [Example 6.8, 3-(5-Methoxy-2-Methyl-4-Oxo-4H-Quinazolin-3-yl)-Piperidine-2,6-Dione]
The melting point of the first is higher: 298 to 300 °C for the first, 274 to 276 °C for the second.

In the case of `Cc1nc2cccc(CN)c2c(=O)n1C1CCC(=O)NC1=O.Cl` (centres unmarked), the melting point is reported as 256 °C (dec.).
With `Cc1nc2cccc(Cl)c2c(=O)n1C1CCC(=O)NC1=O` (centres unmarked) [Example 6.10, 3-(5-Chloro-2-Methyl-4-Oxo-4H-Quinazolin-3-yl)-Piperidine-2,6-Dione] the melting point was 315 °C (dec.).
In the case of `CCOC(=O)Nc1cccc2nc(C)n(C3CCC(=O)NC3=O)c(=O)c12` (centres unmarked) [Example 6.27, [3-(2,6-Dioxo-Piperidin-3-yl)-2-Methyl-4-Oxo-3,4-Dihydro-Quinazolin-5-yl]-Carbamic Acid Ethyl Ester], the melting point is reported as 284 to 286 °C (dec.).
With `Cc1nc2cccc(CNC(=O)Cc3ccc(Cl)cc3)c2c(=O)n1C1CCC(=O)NC1=O` (centres unmarked) [Example 6.40, 2-(4-Chloro-Phenyl)-N-[3-(2,6-Dioxo-Piperidin-3-yl)-2-Methyl-4-Oxo-3,4-Dihydro-Quinazolin-5-ylmethyl]-Acetamide] the melting point was 285 °C (dec.).
